The text below walks through data of patent publication US8178570B2, “Tie-2 modulators and methods of use” (Exelixis, Inc., priority 2003, dated 2012).

One may read the IC50 as the concentration at which inhibition is half-maximal.

Sequence of Tie-2 (Q02763 23-1124): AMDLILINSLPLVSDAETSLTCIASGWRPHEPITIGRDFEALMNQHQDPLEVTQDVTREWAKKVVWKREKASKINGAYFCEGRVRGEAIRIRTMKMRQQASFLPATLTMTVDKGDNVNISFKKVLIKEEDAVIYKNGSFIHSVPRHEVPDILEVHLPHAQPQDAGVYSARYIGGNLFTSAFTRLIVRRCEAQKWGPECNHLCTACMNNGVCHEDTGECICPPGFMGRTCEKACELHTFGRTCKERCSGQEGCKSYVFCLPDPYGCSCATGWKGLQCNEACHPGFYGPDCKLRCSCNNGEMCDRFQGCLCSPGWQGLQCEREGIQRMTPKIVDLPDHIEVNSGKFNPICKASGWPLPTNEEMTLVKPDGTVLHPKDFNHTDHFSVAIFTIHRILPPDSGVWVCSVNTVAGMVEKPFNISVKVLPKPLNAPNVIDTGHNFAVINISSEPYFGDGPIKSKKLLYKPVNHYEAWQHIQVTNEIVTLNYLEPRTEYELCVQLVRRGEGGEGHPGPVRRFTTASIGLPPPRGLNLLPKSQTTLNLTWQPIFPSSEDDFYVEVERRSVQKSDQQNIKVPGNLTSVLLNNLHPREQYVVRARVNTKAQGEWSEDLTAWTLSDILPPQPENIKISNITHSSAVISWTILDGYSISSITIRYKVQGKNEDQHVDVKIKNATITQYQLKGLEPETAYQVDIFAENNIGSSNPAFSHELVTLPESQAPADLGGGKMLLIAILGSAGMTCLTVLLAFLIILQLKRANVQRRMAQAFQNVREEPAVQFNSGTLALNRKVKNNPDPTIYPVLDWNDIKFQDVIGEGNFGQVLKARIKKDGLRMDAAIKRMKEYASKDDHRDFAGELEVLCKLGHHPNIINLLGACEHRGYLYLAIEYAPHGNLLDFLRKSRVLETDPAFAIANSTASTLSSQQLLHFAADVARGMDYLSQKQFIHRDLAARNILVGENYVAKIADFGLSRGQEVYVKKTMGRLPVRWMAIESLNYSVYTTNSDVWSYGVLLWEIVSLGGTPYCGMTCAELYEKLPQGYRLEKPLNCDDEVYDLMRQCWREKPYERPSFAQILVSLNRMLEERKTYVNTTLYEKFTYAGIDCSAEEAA

This experiment concerns the target Tie-2 (Homo sapiens, UniProt Q02763). Briefly: Tie-2 tyrosine kinase activity: kinase-dependent ATP consumption (pEY substrate, luciferase/luciferin chemiluminescence) or 33P-ATP incorporation into substrate. As to conditions: Tie-2 (human enzyme) inhibition, Table 2, class symbols A-D. Type of experiment: biochemical. Put shortly: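 Values are IC50 categories: A below 50 nM, B above 50 to 1000 nM, C above 1000 to below 10,000 nM, D 10,000 nM or more. They were measured by 33P-ATP phosphate transfer onto a generic substrate bound to the plate (scintillation), or by luminescent luciferase detection of ATP used with pEY.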
`COc1ccc(-c2nc(-c3ccncc3)nn2CCN(C(=O)Nc2ccc(Cl)cc2Cl)C2CCCC2)cc1Cl` [Entry 83, N-(2-{5-[3-chloro-4-(methyloxy)phenyl]-3-pyridin-4-yl-1H-1,2,4-triazol-1-yl}ethyl)-N-cyclopentyl-N′-(2,4-dichlorophenyl)urea]: the IC50 was ≥ 10 µM.

Consider `COc1ccc(-c2nc(-c3ccncc3)nn2CCN(C(=O)Nc2ccccc2OC)C2CCCC2)cc1Cl` [Entry 84, N-(2-{5-[3-chloro-4-(methyloxy)phenyl]-3-pyridin-4-yl-1H-1,2,4-triazol-1-yl}ethyl)-N-cyclopentyl-N′-[2-(methyloxy)phenyl]urea], for which the concentration for half-maximal inhibition (IC50) was ≥ 10 µM.

For `COc1ccc(NC(=O)N(CCn2nc(-c3ccncc3)nc2-c2ccc(OC)c(Cl)c2)C2CCCC2)c(OC)c1` [Entry 85, N′-[2,4-bis(methyloxy)phenyl]-N-(2-{5-[3-chloro-4-(methyloxy)phenyl]-3-pyridin-4-yl-1H-1,2,4-triazol-1-yl}ethyl)-N-cyclopentylurea], the concentration for half-maximal inhibition (IC50) was ≥ 10 µM.

`COc1ccc(-c2nc(-c3ccncc3)nn2CCN(C(=O)Nc2ccccc2C)C2CCCC2)cc1Cl` [Entry 86, N-(2-{5-[3-chloro-4-(methyloxy)phenyl]-3-pyridin-4-yl-1H-1,2,4-triazol-1-yl}ethyl)-N-cyclopentyl-N′-(2-methylphenyl)urea]: the IC50 is 1 to 10 µM.

`CCc1ccccc1NC(=O)N(CCn1nc(-c2ccncc2)nc1-c1ccc(OC)c(Cl)c1)C1CCCC1` [Entry 87, N-(2-{5-[3-chloro-4-(methyloxy)phenyl]-3-pyridin-4-yl-1H-1,2,4-triazol-1-yl}ethyl)-N-cyclopentyl-N′-(2-ethylphenyl)urea] yielded a half-maximal inhibitory concentration (IC50) of 1 to 10 µM.

Turning to `COc1ccc(-c2nc(-c3ccncc3)nn2CCN(C(=O)Nc2ccc(Cl)c(Cl)c2)C2CCCC2)cc1Cl` [Entry 88, N-(2-{5-[3-chloro-4-(methyloxy)phenyl]-3-pyridin-4-yl-1H-1,2,4-triazol-1-yl}ethyl)-N-cyclopentyl-N′-(3,4-dichlorophenyl)urea], the concentration for half-maximal inhibition (IC50) was ≥ 10 µM.

With `CCCCCCNC(=O)N(CCn1nc(-c2ccncc2)nc1-c1ccc(OC)c(Cl)c1)C1CCCC1` [Entry 89, N-(2-{5-[3-chloro-4-(methyloxy)phenyl]-3-pyridin-4-yl-1H-1,2,4-triazol-1-yl}ethyl)-N-cyclopentyl-N′-hexylurea], the IC50 is ≥ 10 µM.

As for `COc1ccc(-c2nc(-c3ccncc3)nn2CCN(C(=O)Nc2ccc(F)cc2)C2CCCC2)cc1Cl` [Entry 90, N-(2-{5-[3-chloro-4-(methyloxy)phenyl]-3-pyridin-4-yl-1H-1,2,4-triazol-1-yl}ethyl)-N-cyclopentyl-N′-(4-fluorophenyl)urea], the IC50 is ≥ 10 µM.

As to `COc1ccc(NC(=O)N(CCn2nc(-c3ccncc3)nc2-c2ccc(OC)c(Cl)c2)C2CCCC2)cc1` [Entry 91, N-(2-{5-[3-chloro-4-(methyloxy)phenyl]-3-pyridin-4-yl-1H-1,2,4-triazol-1-yl}ethyl)-N-cyclopentyl-N′-[4-(methyloxy)phenyl]urea], the IC50 is ≥ 10 µM.

For the compound `COc1ccc(-c2nc(-c3ccncc3)nn2CCN(C(=O)NCc2ccccc2)C2CCCC2)cc1Cl` [Entry 92, N-(2-{5-[3-chloro-4-(methyloxy)phenyl]-3-pyridin-4-yl-1H-1,2,4-triazol-1-yl}ethyl)-N-cyclopentyl-N′-(phenylmethyl)urea], the IC50 was in the range of 1 to 10 µM.

With `COc1ccc(-c2nc(-c3ccncc3)nn2CCN(C(=O)Nc2cc(C(F)(F)F)cc(C(F)(F)F)c2)C2CCCC2)cc1Cl` [Entry 93, N′-[3,5-bis(trifluoromethyl)phenyl]-N-(2-{5-[3-chloro-4-(methyloxy)phenyl]-3-pyridin-4-yl-1H-1,2,4-triazol-1-yl}ethyl)-N-cyclopentylurea], the IC50 is ≥ 10 µM.

Turning to `COc1ccc(-c2nc(-c3ccncc3)nn2CCN(C(=O)Nc2cc(OC)c(OC)c(OC)c2)C2CCCC2)cc1Cl` [Entry 94, N-(2-{5-[3-chloro-4-(methyloxy)phenyl]-3-pyridin-4-yl-1H-1,2,4-triazol-1-yl}ethyl)-N-cyclopentyl-N′-[3,4,5-tris(methyloxy)phenyl]urea], the IC50 was ≥ 10 µM.

Turning to `COc1ccc(-c2nc(-c3ccncc3)nn2CCN(C(=O)Nc2cccc(C(C)=O)c2)C2CCCC2)cc1Cl` [Entry 95, N′-(3-acetylphenyl)-N-(2-{5-[3-chloro-4-(methyloxy)phenyl]-3-pyridin-4-yl-1H-1,2,4-triazol-1-yl}ethyl)-N-cyclopentylurea], the concentration for half-maximal inhibition (IC50) was ≥ 10 µM.

On to `COc1ccc(-c2nc(-c3ccncc3)nn2CCN(C(=O)Nc2ccc(C)c(C)c2)C2CCCC2)cc1Cl` [Entry 96, N-(2-{5-[3-chloro-4-(methyloxy)phenyl]-3-pyridin-4-yl-1H-1,2,4-triazol-1-yl}ethyl)-N-cyclopentyl-N′-(3,4-dimethylphenyl)urea], for which the concentration for half-maximal inhibition (IC50) is ≥ 10 µM.

`COc1ccc(-c2nc(-c3ccncc3)nn2CCN(C(=O)Nc2ccc(Cl)cc2C(F)(F)F)C2CCCC2)cc1Cl` [Entry 97, N-(2-{5-[3-chloro-4-(methyloxy)phenyl]-3-pyridin-4-yl-1H-1,2,4-triazol-1-yl}ethyl)-N′-[4-chloro-2-(trifluoromethyl)phenyl]-N-cyclopentylurea] came in with an IC50 of 1 to 10 µM.

As to `COc1ccc(-c2nc(-c3ccncc3)nn2CCN(C(=O)Nc2ccc(SC)cc2)C2CCCC2)cc1Cl` [Entry 98, N-(2-{5-[3-chloro-4-(methyloxy)phenyl]-3-pyridin-4-yl-1H-1,2,4-triazol-1-yl}ethyl)-N-cyclopentyl-N′-[4-(methylthio)phenyl]urea], the half-maximal inhibitory concentration (IC50) was ≥ 10 µM.

Regarding `COc1ccc(-c2nc(-c3ccncc3)nn2CCN(C(=O)Nc2ccc(C(C)=O)cc2)C2CCCC2)cc1Cl` [Entry 99, N′-(4-acetylphenyl)-N-(2-{5-[3-chloro-4-(methyloxy)phenyl]-3-pyridin-4-yl-1H-1,2,4-triazol-1-yl}ethyl)-N-cyclopentylurea], the 50% inhibitory concentration (IC50) is ≥ 10 µM.

`COc1ccc(-c2nc(-c3ccncc3)nn2CCN(C(=O)Nc2ccc(C(C)C)cc2)C2CCCC2)cc1Cl` [Entry 100, N-(2-{5-[3-chloro-4-(methyloxy)phenyl]-3-pyridin-4-yl-1H-1,2,4-triazol-1-yl}ethyl)-N-cyclopentyl-N′-[4-(1-methylethyl)phenyl]urea]: the IC50 is ≥ 10 µM.

As for `COc1ccc(-c2nc(-c3ccncc3)nn2CCN(C(=O)Nc2ccc(C#N)cc2)C2CCCC2)cc1Cl` [Entry 101, N-(2-{5-[3-chloro-4-(methyloxy)phenyl]-3-pyridin-4-yl-1H-1,2,4-triazol-1-yl}ethyl)-N′-(4-cyanophenyl)-N-cyclopentylurea], the concentration for half-maximal inhibition (IC50) is ≥ 10 µM.

As for `COc1ccc(-c2nc(-c3ccncc3)nn2CCN(C(=O)Nc2ccccc2-c2ccccc2)C2CCCC2)cc1Cl` [Entry 102, N′-biphenyl-2-yl-N-(2-{5-[3-chloro-4-(methyloxy)phenyl]-3-pyridin-4-yl-1H-1,2,4-triazol-1-yl}ethyl)-N-cyclopentylurea], the concentration for half-maximal inhibition (IC50) was ≥ 10 µM.

For the compound `CCCCCNC(=O)N(CCn1nc(-c2ccncc2)nc1-c1ccc(OC)c(Cl)c1)C1CCCC1` [Entry 103, N-(2-{5-[3-chloro-4-(methyloxy)phenyl]-3-pyridin-4-yl-1H-1,2,4-triazol-1-yl}ethyl)-N-cyclopentyl-N′-pentylurea], the concentration for half-maximal inhibition (IC50) was ≥ 10 µM.
